{"source": "patent US5093475A", "about": "(priority 1989, dated 1992)", "key": {"[1]": {"assay": "Hydrolysis of the 2-iminothiolane rings in PBS (pH 7.2), monitored at 248nm", "type": "physicochemical", "conditions": "25° C.", "text": "a. The rate of hydrolysis of the 2-iminothiolane rings in PBS (pH 7.2), monitored at 248nm."}, "[2]": {"assay": "Rate of reaction of the 2-iminothiolanes with glycine, coupled with DTNB, 412nm", "type": "physicochemical", "conditions": "160 mM glycine, 0.5 mM DTNB, PBS pH 7.2; 25° C.", "method": "b. The rate of reaction of the 2-iminothiolanes with 160 mM glycine in PBS (pH 7.2), monitored by coupling the reaction with 0.5 mM DTNB and following the change in absorbance at 412nm."}, "[3]": {"system": "791 mAb", "assay": "Rate of reaction of the 2-iminothiolanes with 791 mAb, coupled with DTNB, 412nm", "conditions": "0.5 mM 2-iminothiolane, 20 μM 791 mAb, 2.5 mM DTNB, pH 7.5; 25° C.", "method": "c. The rate of reaction of the 2-iminothiolanes (0.5 mM) with 791 mAb (20 μM), as monitored by coupling the reaction with 2.5 mM DTNB in 0.1 M NaPO4, 0.1 M NaCl, pH 7.5, and monitoring the change in absorbance at 412nm."}, "[4]": {"assay": "Glutathione-induced TNB release from 791/iminothiolane/TNB (disulfide stability)", "type": "physicochemical", "conditions": "for Reaction rate, TNB, k × 10^5 (initial rate of TNB release from 791/linker/TNB): ca. 10 μM protein-S-S-TNB, 200 μM glutathione, PBS, 0.5 mM EDTA, pH 7.25, 25° C.; for Increase in Disulfide Stability Relative to: 2IT / Increase in Disulfide Stability Relative to: SPDP: ratio of TNB release rate constants; for Increase in Disulfide Stability Relative to: SPDP: vs 791/SPDP/TNB", "method": "d. The initial rate of TNB release from 791/iminothiolane/TNB induced by glutathione. Samples contained ca. 10 μM of protein-S-S-TNB and 200 μM of glutathione in PBS containing 0.5 mM EDTA, pH 7.25, and were monitored at 412nm. FIG. 1 presents the results graphically.\nThe relative increase in disulfide stability was also compared to 791/SPDP/TNB, and was determined as for 2IT.\n791/SPDP/TNB was prepared by derivatizing 791 mAb with SPDP following conventional procedures and conditions, removing any byproducts by gel filtration, releasing the PDP group with 1 mM DTT, and then reacting the liberated sulfhydryl with DTNB. Following gel filtration, the rate of TNB release was measured as in Example 19d above."}, "[5]": {"conditions": "Thorpe et al., Cancer Res. 47:5924-5931, 1987; cited from earlier work"}, "[6]": {"conditions": "cited from earlier work"}}, "note": "Where a name gives a salt, the structure may show the parent alone. Marks after values point to notes of the source that are not given here."}
{"smiles": "Cl.N=C1CCCS1", "note": "[Compound 2IT, 2-iminothiolane hydrochloride, reference compound]", "values": [{"measurement": "Reaction rate, Hydrolysis", "setting": "[1]", "result": 10.2, "unit": "%/hr"}, {"measurement": "Reaction rate, Glycine, k × 10^3", "setting": "[2]", "result": "5.3 s^-1 (k × 10^3)"}, {"measurement": "Reaction rate, 791, k × 10^5", "setting": "[3]", "result": "5.0 s^-1 (k × 10^5)"}, {"measurement": "rate constant for unsubstituted 2-iminothiolane", "setting": "[4]; TNB release from 791/linker/TNB by glutathione", "result": "9.42×10^-3"}, {"measurement": "Reaction rate, TNB, k × 10^5 (initial rate of TNB release from 791/linker/TNB)", "setting": "[4]", "result": "942.0 s^-1 (k × 10^5)"}, {"measurement": "Increase in Disulfide Stability Relative to: 2IT", "setting": "[4]", "result": 1.0}, {"measurement": "Increase in Disulfide Stability Relative to: SPDP", "setting": "[4]", "result": 0.3}, {"measurement": "stability of disulfide bond in vivo, in words", "setting": "[5]", "result": "unstable in vivo"}]}
{"smiles": "CC(SS(=O)(=O)O)c1ccc(C(=O)ON2C(=O)CCC2=O)cc1", "note": "(stereo not drawn) [SMBT, sodium S-4-succinimidyloxycarbonyl-α-methyl benzyl thiosulfate]", "values": [{"measurement": "solubility in water, in words (background)", "setting": "[6]", "result": "low solubility in water"}, {"measurement": "stability of disulfide bond in vivo, in words", "setting": "[5]", "result": "appear to have more stable disulfide linkages in vivo"}]}
{"smiles": "CC(SSc1ccccn1)c1ccc(C(=O)ON2C(=O)CCC2=O)cc1", "note": "(stereo not drawn) [SMPT, 4-succinimidyloxycarbonyl-α-methyl-α-(2-pyridyldithio)-toluene]", "values": [{"measurement": "solubility in water, in words (background)", "setting": "[6]", "result": "low solubility in water"}, {"measurement": "stability of disulfide bond in vivo, in words", "setting": "[5]", "result": "appear to have more stable disulfide linkages in vivo"}]}
{"smiles": "O=C(CCSSc1ccccn1)ON1C(=O)CCC1=O", "note": "[SPDP, N-succinimidyl-3-(2-pyridyldithio)propionate, reference compound]", "values": [{"measurement": "Increase in Disulfide Stability Relative to: 2IT", "setting": "[4]", "result": 3.6}, {"measurement": "Increase in Disulfide Stability Relative to: SPDP", "setting": "[4]", "result": 1.0}, {"measurement": "stability of disulfide bond in vivo, in words", "setting": "[5]", "result": "unstable in vivo"}]}
{"smiles": "CC1(C)CCC(=N)S1.Cl", "note": "[dimethyl-2IT, 5,5-Dimethyl-2-iminothiolane hydrochloride]", "values": [{"measurement": "Reaction rate, Hydrolysis", "setting": "[1]", "result": 6.9, "unit": "%/hr"}, {"measurement": "Reaction rate, Glycine, k × 10^3", "setting": "[2]", "result": "3.5 s^-1 (k × 10^3)"}, {"measurement": "Reaction rate, 791, k × 10^5", "setting": "[3]", "result": "4.6 s^-1 (k × 10^5)"}, {"measurement": "Reaction rate, TNB, k × 10^5 (initial rate of TNB release from 791/linker/TNB)", "setting": "[4]", "result": "0.13 s^-1 (k × 10^5)"}, {"measurement": "Increase in Disulfide Stability Relative to: 2IT", "setting": "[4]", "result": 7246.0}, {"measurement": "Increase in Disulfide Stability Relative to: SPDP", "setting": "[4]", "result": 2046.0}]}
{"smiles": "CC1CCC(=N)S1.Cl", "note": "(stereo not drawn) [methyl-2IT, 5-Methyl-2-iminothiolane hydrochloride]", "values": [{"measurement": "Reaction rate, Hydrolysis", "setting": "[1]", "result": 5.4, "unit": "%/hr"}, {"measurement": "Reaction rate, Glycine, k × 10^3", "setting": "[2]", "result": "4.8 s^-1 (k × 10^3)"}, {"measurement": "Reaction rate, 791, k × 10^5", "setting": "[3]", "result": "4.0 s^-1 (k × 10^5)"}, {"measurement": "Reaction rate, TNB, k × 10^5 (initial rate of TNB release from 791/linker/TNB)", "setting": "[4]", "result": "75.3 s^-1 (k × 10^5)"}, {"measurement": "Increase in Disulfide Stability Relative to: 2IT", "setting": "[4]", "result": 12.5}, {"measurement": "Increase in Disulfide Stability Relative to: SPDP", "setting": "[4]", "result": 3.5}]}
{"smiles": "Cl.N=C1CCC(c2ccccc2)S1", "note": "(stereo not drawn) [phenyl-2IT, 5-Phenyl-2-iminothiolane hydrochloride]", "values": [{"measurement": "Reaction rate, Hydrolysis", "setting": "[1]", "result": 1.5, "unit": "%/hr"}, {"measurement": "Reaction rate, Glycine, k × 10^3", "setting": "[2]", "result": "5.2 s^-1 (k × 10^3)"}, {"measurement": "Reaction rate, 791, k × 10^5", "setting": "[3]", "result": "8.8 s^-1 (k × 10^5)"}, {"measurement": "Reaction rate, TNB, k × 10^5 (initial rate of TNB release from 791/linker/TNB)", "setting": "[4]", "result": "45.8 s^-1 (k × 10^5)"}, {"measurement": "Increase in Disulfide Stability Relative to: 2IT", "setting": "[4]", "result": 20.6}, {"measurement": "Increase in Disulfide Stability Relative to: SPDP", "setting": "[4]", "result": 5.8}]}
{"smiles": "N=C1CC2CCCCC2S1", "note": "(stereo not drawn) [ring-2IT, hydrochloride]", "values": [{"measurement": "Reaction rate, Hydrolysis", "setting": "[1]", "result": 13.4, "unit": "%/hr"}, {"measurement": "Reaction rate, Glycine, k × 10^3", "setting": "[2]", "result": "3.4 s^-1 (k × 10^3)"}, {"measurement": "Reaction rate, 791, k × 10^5", "setting": "[3]", "result": "5.6 s^-1 (k × 10^5)"}, {"measurement": "Reaction rate, TNB, k × 10^5 (initial rate of TNB release from 791/linker/TNB)", "setting": "[4]", "result": "82.1 s^-1 (k × 10^5)"}, {"measurement": "Increase in Disulfide Stability Relative to: 2IT", "setting": "[4]", "result": 11.5}, {"measurement": "Increase in Disulfide Stability Relative to: SPDP", "setting": "[4]", "result": 3.2}]}
{"smiles": "Cl.N=C1CCC2(CCCCC2)S1", "note": "[spiro-2IT, 2-Imino-1-thiaspiro[4.5]decane hydrochloride]", "values": [{"measurement": "Reaction rate, Hydrolysis", "setting": "[1]", "result": 5.6, "unit": "%/hr"}, {"measurement": "Reaction rate, Glycine, k × 10^3", "setting": "[2]", "result": "3.0 s^-1 (k × 10^3)"}, {"measurement": "Reaction rate, 791, k × 10^5", "setting": "[3]", "result": "4.6 s^-1 (k × 10^5)"}, {"measurement": "Reaction rate, TNB, k × 10^5 (initial rate of TNB release from 791/linker/TNB)", "setting": "[4]", "result": "0.11 s^-1 (k × 10^5)"}, {"measurement": "Increase in Disulfide Stability Relative to: 2IT", "setting": "[4]", "result": 8564.0}, {"measurement": "Increase in Disulfide Stability Relative to: SPDP", "setting": "[4]", "result": 2418.0}]}
{"smiles": "CC(C)(C)C1CCC(=N)S1.Cl", "note": "(stereo not drawn) [t-butyl-2IT, 5-t-Butyl-2-iminothiolane hydrochloride]", "values": [{"measurement": "Reaction rate, Hydrolysis", "setting": "[1]", "result": 6.1, "unit": "%/hr"}, {"measurement": "Reaction rate, Glycine, k × 10^3", "setting": "[2]", "result": "4.4 s^-1 (k × 10^3)"}, {"measurement": "Reaction rate, 791, k × 10^5", "setting": "[3]", "result": "7.4 s^-1 (k × 10^5)"}, {"measurement": "Reaction rate, TNB, k × 10^5 (initial rate of TNB release from 791/linker/TNB)", "setting": "[4]", "result": "16.4 s^-1 (k × 10^5)"}, {"measurement": "Increase in Disulfide Stability Relative to: 2IT", "setting": "[4]", "result": 57.4}, {"measurement": "Increase in Disulfide Stability Relative to: SPDP", "setting": "[4]", "result": 16.2}]}
